Assay results as given in PubChem BioAssay AID1963421 (Molecular Pharmacology Branch, DTP, NCI, 2024).

System: 519858-162-T-J1-PDC complex spheroid growth, % test/control
Test: Anticancer human tumor 519858-162-T-J1-PDC patient-derived colon adenocarcinoma cell line growth inhibition [Asc]
Conditions: for IC50: curve of first compound; for viability, T/C: stronger effect = lower value
Method in brief: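 Spheroid model: tumor line + HUVEC + hMSC. Single agents and combinations; top conc. at/near clinical Cmax (10 microM if undetermined), half-log dilutions. DMSO stocks at 800-fold test concentration.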
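Further: seven day drug exposure begun three days after spheroid seeding.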
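Wherever viability, T/C is given: 100% = DMSO vehicle wells and lower values mean less viable spheroid.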

IC50 (second compound 0.00316 µM): > 10 µM
IC50 (second compound 0.01 µM): > 10 µM
IC50 (second compound 0.0316 µM): > 10 µM
IC50 (second compound 0.1 µM): > 10 µM
IC50 (second compound 0.316 µM): > 10 µM
IC50 (second compound 1 µM): > 10 µM
Structure (SMILES): C=CC(=O)N1CCN(c2nc(=O)n(-c3c(C)ccnc3C(C)C)c3nc(-c4c(O)cccc4F)c(F)cc23)C(C)C1 (configuration not stated) + CNC(C)C(=O)NC1CN(S(=O)(=O)c2cccc(S(=O)(=O)N3CCC4CCC(C(=O)NC(c5ccccc5)c5ccccc5)N4C(=O)C(NC(=O)C(C)NC)C3)c2)CCC2CCC(C(=O)NC(c3ccccc3)c3ccccc3)N2C1=O
viability, T/C (second compound 0.00316 µM, first compound 0.0316 µM): 125%
viability, T/C (second compound 0.00316 µM, first compound 0.1 µM): 106%
viability, T/C (second compound 0.00316 µM, first compound 0.316 µM): 98.9%
viability, T/C (second compound 0.00316 µM, first compound 1 µM): 75.7%
viability, T/C (second compound 0.00316 µM, first compound 3.16 µM): 88.3%
viability, T/C (second compound 0.00316 µM, first compound 10 µM): 89.6%
viability, T/C (second compound 0.01 µM, first compound 0.0316 µM): 113%
viability, T/C (second compound 0.01 µM, first compound 0.1 µM): 84%
viability, T/C (second compound 0.01 µM, first compound 0.316 µM): 101%
viability, T/C (second compound 0.01 µM, first compound 1 µM): 76.1%
viability, T/C (second compound 0.01 µM, first compound 3.16 µM): 85.8%
viability, T/C (second compound 0.01 µM, first compound 10 µM): 92.4%
viability, T/C (second compound 0.0316 µM, first compound 0.0316 µM): 104%
viability, T/C (second compound 0.0316 µM, first compound 0.1 µM): 95.4%
viability, T/C (second compound 0.0316 µM, first compound 0.316 µM): 109%
viability, T/C (second compound 0.0316 µM, first compound 1 µM): 79.1%
viability, T/C (second compound 0.0316 µM, first compound 3.16 µM): 101%
viability, T/C (second compound 0.0316 µM, first compound 10 µM): 90.8%
viability, T/C (second compound 0.1 µM, first compound 0.0316 µM): 77.9%
viability, T/C (second compound 0.1 µM, first compound 0.1 µM): 80%
viability, T/C (second compound 0.1 µM, first compound 0.316 µM): 103%
viability, T/C (second compound 0.1 µM, first compound 1 µM): 90.4%
viability, T/C (second compound 0.1 µM, first compound 3.16 µM): 77.9%
viability, T/C (second compound 0.1 µM, first compound 10 µM): 80.4%
viability, T/C (second compound 0.316 µM, first compound 0.0316 µM): 85.2%
viability, T/C (second compound 0.316 µM, first compound 0.1 µM): 94.9%
viability, T/C (second compound 0.316 µM, first compound 0.316 µM): 95.4%
viability, T/C (second compound 0.316 µM, first compound 1 µM): 89.2%
viability, T/C (second compound 0.316 µM, first compound 3.16 µM): 90.5%
viability, T/C (second compound 0.316 µM, first compound 10 µM): 98.4%
viability, T/C (second compound 1 µM, first compound 0.0316 µM): 89.7%
viability, T/C (second compound 1 µM, first compound 0.1 µM): 90.3%
viability, T/C (second compound 1 µM, first compound 0.316 µM): 80.3%
viability, T/C (second compound 1 µM, first compound 1 µM): 82%
viability, T/C (second compound 1 µM, first compound 3.16 µM): 91.1%
viability, T/C (second compound 1 µM, first compound 10 µM): 88%
